“And” between values parts separate entries of the source, which are not always exact repeats. Equal entries are not always repeated.
Columns and labels:
[1] = Plasma stability and conversion to EFdA in human plasma; assay type: in vitro ADME
Experimental: The pooled frozen plasma was thawed in a water bath at 37° C. prior to experiment. Plasma was centrifuged at 4000 rpm for 5 min and the clots were removed if any. The pH will be adjusted to 7.4±0.1 if required.
Preparation of test compounds and positive control (propantheline bromide): 1 mM intermediate solution was prepared by diluting 10 μL of the stock solution with 90 μL MeOH; 1 mM intermediate of positive control Propantheline was prepared by diluting 10 μL of the stock solution with 90 μL ultrapure water. 100 μM dosing solution was prepared by diluting 20 μL of the intermediate solution (1 mM) with 180 μL MeOH. 98 μL of blank plasma was spiked with 2 μL of dosing solution (100 μM) to achieve 2 μM of the final concentration in duplicate and samples were incubated at 37° C. in a water bath. At each time point (0, 10, 30, 60 and 120 min), 400 μL of stop solution (0.1% FA in MeOH containing 200 ng/mL tolbutamide and 200 ng/mL Labetalol) was added to precipitate protein and mixed thoroughly. Centrifuged sample plates at 4,000 rpm for 10 min. An aliquot of supernatant (100 μL) was transferred from each well to another plates.
Data analysis: The % remaining of test compound after incubation in plasma was calculated using following equation: % Remaining=100×(PAR at appointed incubation time/PAR at T0 time) where PAR is the peak area ratio of analyte versus internal standard (IS) (LC/MS/MS mobile phase condition: 0.1% Formic Acid in Water/0.1% Formic Acid in Acetonitrile. The appointed incubation time points are T0 (0 min), Tn (n=0, 10, 30, 60, 120 min). Liver S9 Stability

[2] = Liver S9 stability and conversion to EFdA in human liver S9; assay type: in vitro ADME; details: for Conversion to the target drug: liver S9 assay; for Stability in Human Liver S9 Half-life: human liver S9, 37° C.
Experimental: Intermediate solution: Dilute 5 μL of compounds or controls (7-ethoxycoumarin) from stock solution (10 mM) with 495 μL MeOH (Conc.: 100 μM, 1% DMSO, 99% MeOH). Stop solution: Cold ACN (including 100 ng/mL Tolbutamide and Labetalol as internal standard). Add 2 μL test compound or control working solution/well to all plates (T0, T5, T10, T20, T30, T60, NCF60) except matrix blank. Add 600 μL/well stop solution (cold in 4° C., including 100 ng/mL Tolbutamide/100 ng/mL Labetalol) to terminate the T0 plate, then put it on ice. Dispense 840 μL/well S9 solution to 96-well plate as reservoir according to plate map. Then add 100 μL/well to every plate by Apricot. Incubate S9 solution and compound at 37° C. for about 10 min except NCF60 and TO. After adding S9 solution and 98 μL PB buffer to NCF60, incubate at 37° C. without pre-warming, start timer 1. After 60 min, add 600 μL/well stop solution to terminate the reaction. After pre-warming, dispense 760 μL/well cofactor solution to 96-well plate as reservoir according to plate map. Then add 98 μL/well to every plate by Apricot to start reaction. Incubate at 37° C., start timer 2, Add 600 μL/well stop solution (cold in 4° C., including 100 ng/mL Tolbutamide and Labetalol) to terminate the reaction. Samples are centrifuged at 4000 rpm for 20 min. While centrifuging, load 8×new 96-well plate with 300 μL HPLC water, then transfer 100 μL supernatant, mix with water for LC/MS/MS, transferred to Bioanalytical Services for LC-MS/MS analysis. Use equation of first order kinetics to calculate t1/2 and CL: Equation of first order kinetics: […]

[3] = Plasma exposures following oral administration to beagle dogs
[4] = Prodrug formula 4-A PO 8.25 mg/kg, 12.0 hrs, individual animals 2001-2003
[5] = Prodrug formula 4-A PO 8.25 mg/kg, 24.0 hrs, individual animals 2001-2003

## C#C[C@]1(COC(=O)NCCN(C)Cc2oc(=O)oc2C)O[C@@H](n2cnc3c(N)nc(F)nc32)C[C@@H]1O [Formula 7-A, ((2R,3S,5R)-5-(6-amino-2-fluoro-9H-purin-9-yl)-2-ethynyl-3-hydroxytetrahydrofuran-2-yl)methyl (2-(methyl((5-methyl-2-oxo-1,3-dioxol-4-yl)methyl)amino)ethyl)carbamate]
[1]
  Stability in Human Plasma Formation of EFdA: No
[2]
  Stability in Human Liver S9 Formation of EFdA: No

## C#C[C@]1(CO)O[C@@H](n2cnc3c(NCc4oc(=O)oc4C)nc(F)nc32)C[C@@H]1O [Formula 6-A, 4-(((9-((2R,4S,5R)-5-ethynyl-4-hydroxy-5-(hydroxymethyl)tetrahydrofuran-2-yl)-2-fluoro-9H-purin-6-yl)amino)methyl)-5-methyl-1,3-dioxol-2-one]
[1]
  Stability in Human Plasma Formation of EFdA: No
[2]
  Stability in Human Liver S9 Formation of EFdA: Yes
  Conversion to the target drug: can be converted to the target drug efficiently

## C#C[C@]1(COC(=O)OCc2oc(=O)oc2C)O[C@@H](n2cnc3c(N)nc(F)nc32)C[C@@H]1O [Formula 4-A, ((2R,3S,5R)-5-(6-amino-2-fluoro-9H-purin-9-yl)-2-ethynyl-3-hydroxytetrahydrofuran-2-yl)methyl((5-methyl-2-oxo-1,3-dioxol-4-yl)methyl) carbonate]
[1]
  Stability in Human Plasma Formation of EFdA: Yes
[1]; human plasma assay
  Conversion to the target drug: can be converted to the target drug efficiently
[2]
  Stability in Human Liver S9 Formation of EFdA: Yes
  Conversion to the target drug: can be converted to the target drug efficiently
[3]; EFdA in dog plasma, oral
  AUC compared with a dose-equivalent EFdA: higher
  Cmax compared with a dose-equivalent EFdA: higher
[3]; Prodrug formula 4-A PO 8.25 mg/kg, 0.250 hrs, individual animals 2001-2003, 8.25 mg/kg
  Prodrug formula 4-A Concentrations in Dog Plasma: 1.13 ng/mL and 1.63 ng/mL and 1.09 ng/mL
[3]; Prodrug formula 4-A PO 8.25 mg/kg, 0.250 hrs, mean of 3 dogs
  Prodrug formula 4-A Concentrations in Dog Plasma, Mean: 1.28 ng/mL
[3]; Prodrug formula 4-A PO 8.25 mg/kg, 0.500 hrs, Mean column (one animal above BQL)
  Prodrug formula 4-A Concentrations in Dog Plasma, Mean: 1.68 ng/mL
[3]; Prodrug formula 4-A PO 8.25 mg/kg, 0.500 hrs, individual animals 2001-2003, 8.25 mg/kg
  Prodrug formula 4-A Concentrations in Dog Plasma: BQL (2×) and 1.68 ng/mL
[3]; Prodrug formula 4-A PO 8.25 mg/kg, 1.00 hrs, Mean column (one animal above BQL)
  Prodrug formula 4-A Concentrations in Dog Plasma, Mean: 1.43 ng/mL
[3]; Prodrug formula 4-A PO 8.25 mg/kg, 1.00 hrs, individual animals 2001-2003, 8.25 mg/kg
  Prodrug formula 4-A Concentrations in Dog Plasma: BQL (2×) and 1.43 ng/mL
[3]; Prodrug formula 4-A PO 8.25 mg/kg, 2.00 hrs, individual animals 2001-2003
  Prodrug formula 4-A Concentrations in Dog Plasma: BQL
[3]; Prodrug formula 4-A PO 8.25 mg/kg, 4.00 hrs, individual animals 2001-2003
  Prodrug formula 4-A Concentrations in Dog Plasma: BQL
[3]; Prodrug formula 4-A PO 8.25 mg/kg, 6.00 hrs, individual animals 2001-2003
  Prodrug formula 4-A Concentrations in Dog Plasma: BQL
[3]; Prodrug formula 4-A PO 8.25 mg/kg, 8.00 hrs, individual animals 2001-2003
  Prodrug formula 4-A Concentrations in Dog Plasma: BQL
[3]; [4]
  EFdA Concentrations in Dog Plasma: BQL
  Prodrug formula 4-A Concentrations in Dog Plasma: BQL
[3]; [5]
  EFdA Concentrations in Dog Plasma: BQL
  Prodrug formula 4-A Concentrations in Dog Plasma: BQL
[3]; dogs, oral
  Prodrug detected in the systemic circulation: minimal

## C#C[C@]1(COC(=O)OCc2oc(=O)oc2C)O[C@@H](n2cnc3c(N)nc(F)nc32)C[C@@H]1OC(=O)OCc1oc(=O)oc1C [Formula 4-C, [(2R,3S,5R)-5-(6-amino-2-fluoro-purin-9-yl)-2-ethynyl-2-[(5-methyl-2-oxo-1,3-dioxol-4-yl)methoxycarbonyloxymethyl]tetrahydrofuran-3-yl] (5-methyl-2-oxo-1,3-dioxol-4-yl)methyl carbonate]
[1]
  Conversion to the target drug: can be converted to the target drug efficiently
  Stability in Human Plasma Formation of EFdA: Yes
[2]
  Stability in Human Liver S9 Formation of EFdA: Yes
  Stability in Human Liver S9 Half-life: C (C: <50 minutes)
  Conversion to the target drug: can be converted to the target drug efficiently

## C#C[C@]1(COC(=O)NC(C)C)O[C@@H](n2cnc3c(N)nc(F)nc32)C[C@@H]1O [Formula 2-A, ((2R,3S,5R)-5-(6-amino-2-fluoro-9H-purin-9-yl)-2-ethynyl-3-hydroxytetrahydrofuran-2-yl)methyl isopropylcarbamate]
[1]
  Stability in Human Plasma Formation of EFdA: No
[2]
  Stability in Human Liver S9 Formation of EFdA: No

## C#C[C@]1(CO)O[C@@H](n2cnc3c(NC(=O)OC(C)C)nc(F)nc32)C[C@@H]1O [Formula 3-A, isopropyl (9-((2R,4S,5R)-5-ethynyl-4-hydroxy-5-(hydroxymethyl)tetrahydrofuran-2-yl)-2-fluoro-9H-purin-6-yl)carbamate]
[1]
  Stability in Human Plasma Formation of EFdA: No
[2]
  Stability in Human Liver S9 Formation of EFdA: No
  Stability in Human Liver S9 Half-life: B (B: 50-200 minutes)

## C#C[C@]1(COC(=O)NC)O[C@@H](n2cnc3c(N)nc(F)nc32)C[C@@H]1O [Formula 5-A, ((2R,3S,5R)-5-(6-amino-2-fluoro-9H-purin-9-yl)-2-ethynyl-3-hydroxytetrahydrofuran-2-yl)methyl methylcarbamate]
[1]
  Stability in Human Plasma Formation of EFdA: No
[2]
  Stability in Human Liver S9 Formation of EFdA: No

## C#C[C@]1(CO)O[C@@H](n2cnc3c(N)nc(F)nc32)C[C@@H]1O [EFdA, (2R,3S,5R)-5-(6-amino-2-fluoro-9H-purin-9-yl)-2-ethynyl-2-(hydroxymethyl)tetrahydrofuran-3-ol, reference compound]
[3]; EFdA PO 5 mg/kg, 6.00 hrs, individual animals 4001-4003
  EFdA Concentrations in Dog Plasma: BQL
[3]; EFdA PO 5 mg/kg, 8.00 hrs, individual animals 4001-4003
  EFdA Concentrations in Dog Plasma: BQL
[3]; EFdA PO 5 mg/kg, 12.0 hrs, individual animals 4001-4003
  EFdA Concentrations in Dog Plasma: BQL
[3]; EFdA PO 5 mg/kg, 24.0 hrs, individual animals 4001-4003
  EFdA Concentrations in Dog Plasma: BQL
[3]; oral EFdA 5 mg/kg, dogs
  EFdA Exposure in Plasma Cmax: 392 ng/mL
[3]; oral EFdA 5 mg/kg, dogs, AUC0-24 h
  EFdA Exposure in Plasma AUC: 792 ng·h/mL
